System: endogenous proteases
Assay: Stability of synthetic BNP-32 spiked into normal human plasma with protease inhibitors (chemiluminescent BNP immunoassay)
Format: biochemical
Details: for efficacy in stabilizing BNP (in words): Table 11, inhibitors at usual functional concentrations
[1] = IHPP + 10 ng/ml BNP, 4° C., AEBSF 200 μg/ml, antipain 100 μg/ml, benzamidine 14 mM, PPACK 50 μg/ml, or all four

| SMILES | % Recovery vs 1st run (Time 0) | BNP, 1st run (Time 0) | BNP, 3 hours at 4° C. | BNP, 17 hours at 4° C. | BNP, 40 hours at 4° C. | BNP, 6 days at 4° C. | 1 week (RLU) [1] | 2 weeks (RLU) [1] | 4 weeks % Signal Recovered [1] | 4 weeks (RLU) [1] | 72 hrs (RLU) [1] | 22 days (RLU) [1] | Day 0 (RLU) [1] | efficacy in stabilizing BNP (in words) |
| --- | --- | --- | --- | --- | --- | --- | --- | --- | --- | --- | --- | --- | --- | --- |
| NCCc1ccc(S(=O)(=O)F)cc1 [AEBSF, 4-(2-aminoethyl)benzenesulfonylfluoride] | 85.2% | 741.7 pg/mL | 768.6 pg/mL | 715.2 pg/mL | 735.7 pg/mL | 631.9 pg/mL | 2504809 RLU | 4241 RLU | 0.1% | 2434 RLU | 3249767 RLU | 3812 RLU | 4079471 RLU | intermediate efficacy |
| NC(N)=NCCC[C@H](NC(=O)[C@@H]1CCCN1C(=O)[C@H](N)Cc1ccccc1)C(=O)CCl [PPRACK, D-Phe-Pro-Arg-chloromethylketone] | 100.5% | 892.0 pg/mL | 894.6 pg/mL | 957.6 pg/mL | 939.7 pg/mL | 896.2 pg/mL | – | – | – | – | – | – | – | act as efficiently as antipain, leupeptin and PPACK |
